In patent US20240246941A1, “SUBSTITUTED 4-(3-AMINOPROP-1-YL)AMINOQUINOLINE ANALOGS AS MODULATORS OF MELANOMA-ASSOCIATED ANTIGEN 11 UBIQUITIN LIGASE” (ST. JUDE CHILDREN'S RESEARCH HOSPITAL, INC., priority 2020, published 2024):
Where two headings read alike, the source gives them in different places.

Target: interaction between GST-MAGEA11 MHD and FAM-PCF11_4 peptide (MAGE-A11:PCF11) (Homo sapiens (Human), UniProt P43364)
Assay: TR-FRET dose response competition assay for disruption of MAGE-A11:PCF11 binding
Procedure, shortened: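 Competition TR-FRET at room temperature in 50 mM Tris pH 7.5, 20 mM MgCl2, 0.1 mg/ml BSA, 1 mM DTT: final 5 nM GST-MAGEA11 MHD, 5 nM Tb-anti-GST, 200 nM FAM-PCF11_4, 90 min. Ratio 520/490 nm converted to % inhibition; IC50 from sigmoidal fit.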

[1] = Table 8, representative compounds, read-out: TR-FRET IC50
[2] = Table 5, dose response TR-FRET screening of 59 quinoline compounds against MAGE-A11:PCF11, read-out: TR-FRET IC50
[3] = Dose response TR-FRET screening of nine scaffold groups against MAGE-A11:PCF11, read-out: consensus IC50

Sequence of interaction between GST-MAGEA11 MHD and FAM-PCF11_4 peptide (MAGE-A11:PCF11) (P43364 218-429): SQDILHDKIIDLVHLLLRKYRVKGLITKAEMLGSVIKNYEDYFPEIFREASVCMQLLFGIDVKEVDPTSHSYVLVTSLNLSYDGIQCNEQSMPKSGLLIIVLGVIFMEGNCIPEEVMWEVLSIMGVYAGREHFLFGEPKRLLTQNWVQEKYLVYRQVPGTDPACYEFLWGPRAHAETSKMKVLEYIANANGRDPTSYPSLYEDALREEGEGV

Compound	IC50 [1]	IC50 [3]	also measured
COc1ccc(F)cc1CNCCCNc1ccnc2cc(-c3ccc(C(C)(C)C)cc3)ccc12 [SJ000311289]	2.04 µM		
c1coc(CNCCCNc2ccnc3cc(-c4ccc5c(c4)OCO5)ccc23)c1 [SJ000311290-1]			IC50 [2]: > 70 µM
COc1cccc(CNCCCNc2ccnc3cc(-c4ccc5c(c4)OCO5)ccc23)c1O [SJ000311291-1]		24.6 µM	
COc1cccc(CNCCCNc2ccnc3cc(-c4ccc5c(c4)OCO5)ccc23)c1O [SJ000311291]	24.6 µM		
c1cc(CNCCCNc2ccnc3cc(-c4ccc5c(c4)OCO5)ccc23)c2c(c1)OCO2 [SJ000311292-1]		30.5 µM	
c1cc(CNCCCNc2ccnc3cc(-c4ccc5c(c4)OCO5)ccc23)c2c(c1)OCO2 [SJ000311292]	30.5 µM		
COc1ccc(F)cc1CNCCCNc1ccnc2cc(-c3ccc4c(c3)OCO4)ccc12 [SJ000311293-1]		29.9 µM	
COc1ccc(F)cc1CNCCNc1ccnc2cc(-c3ccc4c(c3)OCO4)ccc12 [SJ000311293]	29.9 µM		
COc1ccc(-c2ccc3c(NCCCNCc4cccc(OC)c4O)ccnc3c2)cc1 [SJ000311295-1]		69.9 µM	
COc1ccc(-c2ccc3c(NCCCNCc4cccc(OC)c4O)ccnc3c2)cc1 [SJ000311295]	69.9 µM		
COc1ccc(-c2ccc3c(NCCCNCc4cccc5c4OCO5)ccnc3c2)cc1 [SJ000311296-1]		69.9 µM	
COc1ccc(-c2ccc3c(NCCCNCc4cccc5c4OCO5)ccnc3c2)cc1 [SJ000311296]	69.9 µM		
COc1ccc(-c2ccc3c(NCCCNCc4cc(F)ccc4OC)ccnc3c2)cc1 [SJ000311297-1]		69.9 µM	
COc1ccc(-c2ccc3c(NCCCNCc4cc(F)ccc4OC)ccnc3c2)cc1 [SJ000311297]	69.9 µM		
COc1cccc(CNCCCNc2ccnc3cc(Cc4cccc(C(F)(F)F)c4)ccc23)c1O [SJ000311299-1]		27.5 µM	
COc1cccc(CNCCCNc2ccnc3cc(Cc4cccc(C(F)(F)F)c4)ccc23)c1O [SJ000311299]	27.5 µM		
FC(F)(F)c1cccc(Cc2ccc3c(NCCCNCc4cccc5c4OCO5)ccnc3c2)c1 [SJ000311300-1]		12.8 µM	
FC(F)(F)c1cccc(Cc2ccc3c(NCCCNCc4cccc5c4OCO5)ccnc3c2)c1 [SJ000311300]	12.8 µM		
COc1ccc(F)cc1CNCCCNc1ccnc2cc(Cc3cccc(C(F)(F)F)c3)ccc12 [SJ000311301-2]		22.1 µM	
COc1ccc(F)cc1CNCCCNc1ccnc2cc(Cc3cccc(C(F)(F)F)c3)ccc12 [SJ000311301]	22.2 µM		
COc1cccc(CNCCCNc2ccnc3cc(Cc4ccc(C#N)cc4)ccc23)c1O [SJ000311303-1]		51 µM	

Compound	IC50 [1]	IC50 [3]	also measured
COC1CCCC(CNCCCNc2ccnc3cc(Cc4ccc(C#N)cc4)ccc23)C1O (stereo not shown) [SJ000311303]	51 µM		
N#Cc1ccc(Cc2ccc3c(NCCCNCc4cccc5c4OCO5)ccnc3c2)cc1 [SJ000311304-1]		66 µM	
N#Cc1ccc(Cc2ccc3c(NCCCNCc4cccc5c4OCO5)ccnc3c2)cc1 [SJ000311304]	66 µM		
COc1ccc(F)cc1CNCCCNc1ccnc2cc(Cc3ccc(C#N)cc3)ccc12 [SJ000311305-1]		69.9 µM	
COc1ccc(F)cc1CNCCCNc1ccnc2cc(Cc3ccc(C#N)cc3)ccc12 [SJ000311305]	69.9 µM		
c1ccc(Cc2ccc3c(NCCCNCc4ccco4)ccnc3c2)cc1 [SJ000311306-2]			IC50 [2]: 32.2 µM
COc1cccc(CNCCCNc2ccnc3cc(Cc4ccccc4)ccc23)c1O [SJ000311307-1]		69.9 µM	
COc1cccc(CNCCCNc2ccnc3cc(Cc4ccccc4)ccc23)c1O [SJ000311307]	69.9 µM		
c1ccc(Cc2ccc3c(NCCCNCc4cccc5c4OCO5)ccnc3c2)cc1 [SJ000311308-1]		46.1 µM	
c1ccc(Cc2ccc3c(NCCCNCc4cccc5c4OCO5)ccnc3c2)cc1 [SJ000311308]	46.1 µM		
COc1ccc(F)cc1CNCCCNc1ccnc2cc(Cc3ccccc3)ccc12 [SJ000311309-1]		18.3 µM	
COc1ccc(F)cc1CNCCCNc1ccnc2cc(Cc3ccccc3)ccc12 [SJ000311309]	18.3 µM		
COc1cc(Cc2ccc3c(NCCCNCc4cccc(OC)c4O)ccnc3c2)cc(OC)c1 [SJ000311311-1]		33.6 µM	
COc1cc(Cc2ccc3c(NCCCNCc4cccc(OC)c4O)ccnc3c2)cc(OC)c1 [SJ000311311]	33.6 µM		
COc1cc(Cc2ccc3c(NCCCNCc4cccc5c4OCO5)ccnc3c2)cc(OC)c1 [SJ000311312-1]		31.3 µM	
COc1cc(Cc2ccc3c(NCCCNCc4cccc5c4OCO5)ccnc3c2)cc(OC)c1 [SJ000311312]	31.3 µM		
COc1cc(Cc2ccc3c(NCCCNCc4cc(F)ccc4OC)ccnc3c2)cc(OC)c1 [SJ000311313-1]		33.8 µM	
COc1cc(Cc2ccc3c(NCCCNCc4cc(F)ccc4OC)ccnc3c2)cc(OC)c1 [SJ000311313]	33.8 µM		
Clc1cccc(Cl)c1Cc1ccc2c(NCCCNCc3ccco3)ccnc2c1 [SJ000311314-1]			IC50 [2]: 38.4 µM
COc1cccc(CNCCCNc2ccnc3cc(Cc4c(Cl)cccc4Cl)ccc23)c1O [SJ000311315-1]		13.8 µM	
COc1cccc(CNCCCNc2ccnc3cc(Cc4c(Cl)cccc4Cl)ccc23)c1O [SJ000311315]	13.8 µM		

Compound	IC50 [1]	IC50 [3]	also measured
Clc1cccc(Cl)c1Cc1ccc2c(NCCCNCc3cccc4c3OCO4)ccnc2c1 [SJ000311316-1]		11 µM	
Clc1cccc(Cl)c1Cc1ccc2c(NCCCNCc3cccc4c3OCO4)ccnc2c1 [SJ000311316]	11 µM		
COc1ccc(F)cc1CNCCCNc1ccnc2cc(Cc3c(Cl)cccc3Cl)ccc12 [SJ000311317-1]		12.2 µM	
COc1ccc(F)cc1CNCCCNc1ccnc2cc(Cc3c(Cl)cccc3Cl)ccc12 [SJ000311317]	12.2 µM		
Cc1cc(C)cc(Cc2ccc3c(NCCCNCc4ccco4)ccnc3c2)c1 [SJ000311318-2]			IC50 [2]: > 70 µM
COc1cccc(CNCCCNc2ccnc3cc(Cc4cc(C)cc(C)c4)ccc23)c1O [SJ000311319-1]		23.6 µM	
COc1cccc(CNCCCNc2ccnc3cc(Cc4cc(C)cc(C)c4)ccc23)c1O [SJ000311319]	23.6 µM		
Cc1cc(C)cc(Cc2ccc3c(NCCCNCc4cccc5c4OCO5)ccnc3c2)c1 [SJ000311320-1]		16.3 µM	
Cc1cc(C)cc(Cc2ccc3c(NCCCNCc4cccc5c4OCO5)ccnc3c2)c1 [SJ000311320]	16.3 µM		
COc1ccc(F)cc1CNCCCNc1ccnc2cc(Cc3cc(C)cc(C)c3)ccc12 [SJ000311321-1]		9.04 µM	
COc1ccc(F)cc1CNCCCNc1ccnc2cc(Cc3cc(C)cc(C)c3)ccc12 [SJ000311321]	9.04 µM		
COc1cccc(CNCCCNc2ccnc3cc(Cc4ccc(F)cc4Cl)ccc23)c1O [SJ000311323-1]		17.6 µM	
COc1cccc(CNCCCNc2ccnc3cc(Cc4ccc(F)cc4Cl)ccc23)c1O [SJ000311323]	17.6 µM		
Fc1ccc(Cc2ccc3c(NCCCNCc4cccc5c4OCO5)ccnc3c2)c(Cl)c1 [SJ000311324-1]		20.6 µM	
Fc1ccc(Cc2ccc3c(NCCCNCc4cccc5c4OCO5)ccnc3c2)c(Cl)c1 [SJ000311324]	20.6 µM		
COc1ccc(F)cc1CNCCCNc1ccnc2cc(Cc3ccc(F)cc3Cl)ccc12 [SJ000311325-1]		17.6 µM	
COc1ccc(F)cc1CNCCCNc1ccnc2cc(Cc3ccc(F)cc3Cl)ccc12 [SJ000311325]	17.6 µM		
COc1cccc(F)c1CNCCCNc1ccnc2cc(Cl)ccc12 [SJ000311328-2]		69.9 µM	
COc1cccc(F)c1CNCCCNc1ccnc2cc(Cl)ccc12 [SJ000311328]	69.9 µM		
